Read-outs that look alike come from different tables or passages of the source.
Assays:
[1] = system: metastatic castration-resistant prostate cancer; settings: cited from earlier work
[2] = system: mCRPC participants; settings: cited from earlier work
[3] = system: docetaxel progressing metastatic castration-resistant prostate cancer; settings: randomized, 200 patients; P<0.0001; cited from earlier work
[4] = excretory mechanisms, kidneys (Kratochwil et al 2016); cited from earlier work
[5] = system: PSMA-positive metastatic castration-resistant prostate cancer; settings: cited from earlier work
[6] = system: castrate-resistant metastatic prostate cancer; settings: cited from earlier work
[7] = system: PSMA-positive mCRPC participants; assay: PSMAfore phase III: patient disposition, treatment discontinuation; format: in vivo, human
Excerpt: Patient disposition (Full analysis set)

[8] = system: PSMA-positive metastatic castration-resistant prostate cancer (mCRPC); assay: PSMAfore phase III: overall survival (OS), interim analysis; format: in vivo, human; settings: first interim analysis DCO 2 Oct 2022
Method: After radiographic progression, follow up for survival will continue.
OS is hierarchically tested based on a three-look group sequential design using a Lan DeMets (O'Brien Flemming) alpha spending function. The final OS analysis was not planned to be performed at the time of the interim rPFS analysis, which is reported in this FIR.
Following the hierarchical testing strategy defined in the study protocol, OS was tested once rPFS was statistically significant. The one-sided alpha level (<0.000000001012) required for a significant OS difference in this first interim analysis was calculated from the pre-specified alpha spending function and the number of events observed at the time of rPFS analysis.
Results in terms of the OS at the time of the first interim OS analysis are based on 13.5% (40/297 deaths).
The second interim analysis for OS is planned after additional follow up when approximately 75% (223/297) of the targeted number of deaths/events have occurred. If OS is not statistically significant at the second interim analysis, a final analysis is planned when approximately 297 deaths have been recorded.

SMILES: O=C([O-])CN1CCN(CC(=O)[O-])CCN(CC(=O)NCC2CCC(C(=O)N[C@@H](Cc3ccc4ccccc4c3)C(=O)NCCCC[C@H](NC(=O)N[C@@H](CCC(=O)O)C(=O)O)C(=O)O)CC2)CCN(CC(=O)[O-])CC1.[177Lu+3] (stereo partly drawn) [[177Lu]Lu-PSMA-617, lutetium (177Lu) vipivotide tetraxetan]
- objective response rate in measurable disease by RECIST (CR and PR) ([1]; 27 participants with measurable disease): 56%
- median overall survival ([1]; 95% CI 10.5-18.0): 13.3 months
- participants with reduction of PSA of 80% or more ([1]; up to 4 cycles of 4-8 GBq every 6 weeks): 44%
- participants with PSA response (reduction in PSA of at least 50%) ([1]; up to 4 cycles of 4-8 GBq every 6 weeks, post-taxane, post abiraterone/enzalutamide): 64%
- Grade 3/4 nephrotoxicity ([2]; literature): no reports of Grade 3/4 nephrotoxicity
- rate of xerostomia in treated participants ([2]; prospective study, low grade): approximately 87%
- proportion of patients with PSA decline >=50% [3]: 66%
- injected dose cleared within 48 hours [4]: approximately 50%
- TEAE anemia ([5]; VISION): 31.8%
- TEAE arthralgia ([5]; VISION): 22.3%
- TEAE back pain ([5]; VISION): 23.4%
- TEAE constipation ([5]; VISION): 20.2%
- TEAE decreased appetite ([5]; VISION): 21.2%
- TEAE diarrhea ([5]; VISION): 18.9%
- TEAE dry mouth ([5]; VISION): 38.8%
- TEAE fatigue ([5]; VISION): 43.1%
- TEAE leukopenia ([5]; VISION): 12.5%
- TEAE lymphopenia ([5]; VISION): 14.2%
- TEAE nausea ([5]; VISION): 35.3%
- TEAE thrombocytopenia ([5]; VISION): 17.2%
- TEAE vomiting ([5]; VISION): 18.9%
- patients reporting treatment-emergent adverse events (TEAEs) ([5]; as of 27 Jan 2021, 519 patients): 98.1%
- incidence of adverse events of grade 3 or above ([5]; as of 27 Jan 2021): 52.7%
- participants with PSA decline >50% ([6]; 10 participants, 5.6 GBq/150 mCi): 50%
- participants with PSA decline >50% ([6]; after 2 cycles of 6 GBq/160 mCi): 60%
- treatment discontinuation due to adverse event ([7]; DCO 2 Oct 2022): 3.9%
- Reason for discontinuation: Adverse event ([7]; DCO 2 Oct 2022, full analysis set): 9 (3.9) n (%)
- treatment discontinuation due to adverse event ([7]; DCO 21 Jun 2023): 5.6%
- median OS (95% CI) ([8]; Kaplan-Meier): NE [12.16, NE]
- OS: Number of events ([8]; full analysis set): 20 (8.6) n(%)

Source: patent US20250312497A1, “METHOD OF TREATING PROSTATE CANCER” (Novartis AG, priority 2022, published 2025)
